Experimental findings from ChEMBL document CHEMBL3817790 (Medchemcomm, 2016) are described below.

Data set [1] in a line: Cytotoxicity against African green monkey Vero cells after 72 hrs by MTT assay. Format: cell-based. The settings on record: chlorocebus sabaeus. (In general: Formazan colour is commonly taken as a measure of viable cells.)
The test system of a further data set is Leishmania amazonensis. As to the kind of experiment: Antileishmanial activity against promastigote stage of Leishmania amazonensis MHOM/BR/75/Josefa assessed as reduction in parasitic count after 72 hrs by Neubauer hemocytometry. The format is functional, organism-based.
Data set [2] relates to Trypanosoma cruzi. As to the kind of experiment: Antitrypanosomal activity against trypomastigote stage of Trypanosoma cruzi Y assessed as reduction in parasitic viability after 24 hrs by Pizzi-Brener method. Format: functional, organism-based.
Data set [3] relates to Trypanosoma cruzi. As to the kind of experiment: Antitrypanosomal activity against epimastigote stage of Trypanosoma cruzi Y assessed as reduction in parasitic count after 96 hrs by Neubauer hemocytometry. Format: functional, organism-based.
Another data set deals with Leishmania donovani. As to the kind of experiment: Antileishmanial activity against promastigote stage of Leishmania donovani after 2 hrs by [3H]thymidine incorporation assay. Format: functional, organism-based.

In turn, `COc1ccc(/C=C(\C)C(C)=O)cc1` registered a CC50 at 72 h in data set [1] of 240 µM. Besides, the IC50 in the data set on Leishmania amazonensis and in the data set on Trypanosoma cruzi [3] was over 100 µM each time. Further, the EC50 in the data set on Trypanosoma cruzi [2] was over 100 µM.

For the compound `CC/C(=C\c1ccc(Cl)cc1)C(=O)/C=C/c1ccc([N+](=O)[O-])cc1`, the midpoint of cytotoxicity in data set [1], the CC50 at 72 h, lay at 36 µM. Moreover, the IC50 was 0.5 µM in the data set with Leishmania amazonensis and 2.5 µM with Trypanosoma cruzi [3]. Moreover, the EC50 in the data set on Trypanosoma cruzi [2] was found to be 17.9 µM.

For the compound `COc1ccc(/C=C(\C)C(=O)/C=C/c2ccccc2Cl)cc1`, in data set [1], the CC50 at 72 h was found to be 74.3 µM. Also, the IC50 in the data set on Leishmania amazonensis turned out to be 19.5 µM; in the data set on Trypanosoma cruzi [3], 17.8 µM. Besides, the EC50 in the data set with Trypanosoma cruzi [2] came out at 21.8 µM.

Consider `CC/C(=C\c1ccc(Cl)cc1)C(=O)/C=C/c1ccccc1Br`, for which, in data set [1], the midpoint of cytotoxicity, the CC50 at 72 h, lay at 24.4 µM. Moreover, the IC50 in the data set on Leishmania amazonensis was 1.3 µM; in the data set on Trypanosoma cruzi [3], 1.8 µM. Besides, the EC50 in the data set with Trypanosoma cruzi [2] came out at 20 µM.

In turn, `CC/C(=C\c1ccc(Cl)cc1)C(=O)/C=C/c1ccc(Cl)cc1` came in with a CC50 at 72 h in data set [1] of 28.3 µM. In addition, the IC50 turned out to be 2.4 µM in the data set on Leishmania amazonensis and 10.2 µM in the data set with Trypanosoma cruzi [3]. For the same compound, the EC50 in the data set on Trypanosoma cruzi [2] is 25.6 µM.

`COc1ccc(/C=C(\C)C(=O)/C=C/c2cc(OC)c(OC)c(OC)c2)cc1` displayed a CC50 at 72 h in data set [1] of 21.4 µM. The values for the half-inhibitory concentration (IC50) with Leishmania amazonensis and in the data set on Trypanosoma cruzi [3] were 3.7 µM and 6.1 µM, respectively. Moreover, the EC50 in the data set on Trypanosoma cruzi [2] was 69.2 µM.

In data set [1], `COc1ccc(/C=C(\C)C(=O)/C=C/c2ccccc2Br)cc1` gave a CC50 at 72 h of 71 µM. Besides, the IC50 with Leishmania amazonensis and with Trypanosoma cruzi [3] was 21.7 µM throughout. For the same compound, in the data set on Trypanosoma cruzi [2], the EC50 worked out at 25 µM.

In data set [1], `COc1ccc(/C=C(\C)C(=O)/C=C/c2ccc(Br)cc2)cc1` had a CC50 at 72 h of 31.2 µM. The IC50 is 17.3 µM in the data set with Leishmania amazonensis and 20 µM with Trypanosoma cruzi [3]. Further, the concentration giving a half-maximal response (EC50) in the data set with Trypanosoma cruzi [2] amounted to 21.1 µM.

With `COc1ccc(/C=C(\C)C(=O)/C=C/c2ccccc2F)cc1`, it took 81.2 µM to reach half-maximal cytotoxicity in data set [1] (CC50 at 72 h). The IC50 with Leishmania amazonensis was determined as 32.2 µM; in the data set with Trypanosoma cruzi [3], 15.2 µM. Moreover, in the data set on Trypanosoma cruzi [2], the EC50 was 67.6 µM.

With `COc1ccc(/C=C(\C)C(=O)/C=C/c2ccc(/C=C/C(=O)/C(C)=C/c3ccc(OC)cc3)cc2)cc1`, half-maximal cytotoxicity in data set [1] (CC50 at 72 h) was put at 460 µM. The IC50 in the data set on Leishmania amazonensis was 76.3 µM; in the data set on Trypanosoma cruzi [3], over 100 µM. Moreover, in the data set with Trypanosoma cruzi [2], the EC50 is over 100 µM.

Turning to `COc1ccc(/C=C(\C)C(=O)/C=C/c2c(Cl)cccc2Cl)cc1`, the 50% cytotoxic concentration (CC50) at 72 h in data set [1] amounted to 65.7 µM. Also, the IC50 in the data set on Leishmania amazonensis amounted to 8.2 µM; with Trypanosoma cruzi [3] it was 19.6 µM. For the same compound, in the data set on Trypanosoma cruzi [2], the EC50 was 27.9 µM.

In turn, `COc1ccc(/C=C(\C)C(=O)/C=C/c2cccc(Br)c2)cc1` showed a CC50 at 72 h in data set [1] of 152 µM. The 50% inhibitory concentration (IC50) in the data set with Leishmania amazonensis and in the data set with Trypanosoma cruzi [3] was 17.2 µM each time. In addition, the EC50 in the data set on Trypanosoma cruzi [2] is 20.3 µM.

In turn, `COc1ccc(/C=C(\C)C(=O)/C=C/c2ccc(Cl)cc2)cc1` gave a CC50 at 72 h in data set [1] of 87 µM. Moreover, the IC50 came to 13.8 µM in the data set on Leishmania amazonensis and 18.9 µM with Trypanosoma cruzi [3]. Moreover, the EC50 in the data set with Trypanosoma cruzi [2] stood at 23 µM.

The compound `COc1ccc(/C=C(\C)C(=O)/C=C/c2ccc(F)cc2)cc1` yielded a CC50 at 72 h in data set [1] of 68.1 µM. Also, the IC50 in the data set on Leishmania amazonensis stood at 19.3 µM; in the data set with Trypanosoma cruzi [3] it was 15.1 µM. The EC50 in the data set on Trypanosoma cruzi [2] was 19.7 µM.

In data set [1], `CC/C(=C\c1ccc(Cl)cc1)C(=O)/C=C/c1ccc(C=O)cc1` gave a half-maximal cytotoxic concentration (CC50) at 72 h of 46.9 µM. Also, the figures for the IC50 in the data set with Leishmania amazonensis and in the data set with Trypanosoma cruzi [3] were 17.4 µM and 65.2 µM, respectively. In addition, the EC50 in the data set with Trypanosoma cruzi [2] came to 74.2 µM.

`COc1ccc(/C=C(\C)C(=O)/C=C/c2ccc(OC)c(OC)c2)cc1` yielded a CC50 at 72 h in data set [1] of 74.2 µM. In addition, the IC50 worked out at 9.8 µM in the data set with Leishmania amazonensis and 9.7 µM with Trypanosoma cruzi [3]. In addition, in the data set on Trypanosoma cruzi [2], the EC50 came out at 66.7 µM.

Take `COc1cc(/C=C/C(=O)c2ccc(O)c(O)c2)c(OC)c(OC)c1O`: the IC50 in the data set with Leishmania donovani worked out at 3.7 µM.

In the case of `COc1ccc(/C=C(\C)C(=O)/C=C/c2cccc(Cl)c2Cl)cc1`, in data set [1], the CC50 at 72 h is 119 µM. In addition, the results for the IC50 with Leishmania amazonensis and in the data set with Trypanosoma cruzi [3] were 13.8 µM and 16.8 µM, respectively. Further, the concentration for a half-maximal effect (EC50) with Trypanosoma cruzi [2] worked out at 14.8 µM.

Turning to `CC/C(=C\c1ccc(Cl)cc1)C(=O)/C=C/c1ccc(Br)cc1`, in data set [1], half-maximal cytotoxicity (CC50 at 72 h) was put at 29.4 µM. For the same compound, the IC50 in the data set with Leishmania amazonensis came out at 1.4 µM; in the data set on Trypanosoma cruzi [3], 5.4 µM. Also, the EC50 in the data set on Trypanosoma cruzi [2] came to 19.5 µM.

In data set [1], `CC/C(=C\c1ccc(Cl)cc1)C(=O)/C=C/c1cccc(OC)c1OC` showed a CC50 at 72 h of 21.8 µM. The results for the IC50 in the data set with Leishmania amazonensis and in the data set on Trypanosoma cruzi [3] were 2 µM and 5.5 µM, respectively. In the data set with Trypanosoma cruzi [2], the concentration giving a half-maximal response (EC50) came out at 19.1 µM.

Consider `CC/C(=C\c1ccc(Cl)cc1)C(C)=O`, for which, in data set [1], the CC50 at 72 h turned out to be 136 µM. Besides, the IC50 in the data set with Leishmania amazonensis is 58 µM; in the data set on Trypanosoma cruzi [3] it was over 100 µM. In the data set with Trypanosoma cruzi [2], the EC50 is over 100 µM.

Compound `CC/C(=C\c1ccc(Cl)cc1)C(=O)/C=C/c1ccc2c(c1)OCO2` yielded a CC50 at 72 h in data set [1] of 27.1 µM. In addition, the figures for the IC50 with Leishmania amazonensis and in the data set with Trypanosoma cruzi [3] were 2.9 µM and 2.8 µM, respectively. The EC50 in the data set on Trypanosoma cruzi [2] was determined as 7.6 µM.

Consider `O=C(Cn1ccnc1[N+](=O)[O-])NCc1ccccc1` [BENZNIDAZOLE], for which, in the data set on Trypanosoma cruzi [2], the EC50 came out at 34.5 µM. Further, the IC50 in the data set with Trypanosoma cruzi [3] was determined as 6.5 µM.

As a reminder, the CC50 is the concentration giving 50% cytotoxicity. Broadly, the IC50 is the concentration needed to halve the response being measured. In general, EC50 refers to the concentration that produces a half-maximal response.
